IC50 data for 21 compounds are collected here from US10160755B2 (Plexxikon Inc., priority 2015, dated 2018).

One assay concerns the target T1, FLT3-ITD (Homo sapiens, UniProt P36888).
T1 construct: FLT3-ITD; Invitrogen #PV6190
T1 sequence (P36888 1-993): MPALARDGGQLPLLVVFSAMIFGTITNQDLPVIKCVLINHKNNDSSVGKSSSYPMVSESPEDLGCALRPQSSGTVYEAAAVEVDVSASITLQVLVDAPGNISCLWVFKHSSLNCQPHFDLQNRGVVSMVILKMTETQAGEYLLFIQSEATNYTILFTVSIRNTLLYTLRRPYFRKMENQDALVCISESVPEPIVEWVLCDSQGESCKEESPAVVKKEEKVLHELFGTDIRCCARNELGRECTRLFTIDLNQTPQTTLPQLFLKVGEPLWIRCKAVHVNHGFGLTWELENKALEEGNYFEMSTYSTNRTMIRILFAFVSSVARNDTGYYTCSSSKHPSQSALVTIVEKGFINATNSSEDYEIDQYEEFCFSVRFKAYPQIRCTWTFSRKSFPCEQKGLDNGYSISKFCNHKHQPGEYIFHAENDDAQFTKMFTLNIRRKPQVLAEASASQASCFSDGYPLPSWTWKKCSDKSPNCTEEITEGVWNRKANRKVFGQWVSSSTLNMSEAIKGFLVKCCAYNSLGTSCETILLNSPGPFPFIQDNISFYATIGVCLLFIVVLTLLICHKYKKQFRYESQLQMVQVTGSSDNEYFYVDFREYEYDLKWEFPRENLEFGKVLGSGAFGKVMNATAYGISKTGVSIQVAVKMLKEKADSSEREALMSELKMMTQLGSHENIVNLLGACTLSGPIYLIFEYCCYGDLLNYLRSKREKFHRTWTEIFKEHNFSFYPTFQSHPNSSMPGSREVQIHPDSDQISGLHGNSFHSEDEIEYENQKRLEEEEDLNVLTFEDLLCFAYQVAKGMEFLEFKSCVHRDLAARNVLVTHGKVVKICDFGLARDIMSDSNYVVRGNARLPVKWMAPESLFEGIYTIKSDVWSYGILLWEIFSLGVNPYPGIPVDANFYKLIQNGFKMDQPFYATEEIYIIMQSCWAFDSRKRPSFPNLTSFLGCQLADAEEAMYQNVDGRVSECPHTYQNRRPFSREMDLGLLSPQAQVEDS
In words: FLT3-ITD biochemical kinase assay (AlphaScreen). The procedure, abridged:
(§1)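 Recombinant kinase, biotin-GG(EEEEY)10EE 30 nM final, ATP 10 μM (D835Y) / 100 μM (ITD). Stop/detect: SA donor beads 20 min RT, then PY20 acceptor beads 60 min RT. AlphaScreen 580 nm signal; IC50.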
A general note: Alpha assays give light when donor and acceptor beads are brought close together.

Another assay deals with T2, FLT3-D835Y (Homo sapiens, UniProt P36888, D835Y).
T2 construct: purchased Invitrogen PV3967
T2 sequence (P36888 27-993 D835Y): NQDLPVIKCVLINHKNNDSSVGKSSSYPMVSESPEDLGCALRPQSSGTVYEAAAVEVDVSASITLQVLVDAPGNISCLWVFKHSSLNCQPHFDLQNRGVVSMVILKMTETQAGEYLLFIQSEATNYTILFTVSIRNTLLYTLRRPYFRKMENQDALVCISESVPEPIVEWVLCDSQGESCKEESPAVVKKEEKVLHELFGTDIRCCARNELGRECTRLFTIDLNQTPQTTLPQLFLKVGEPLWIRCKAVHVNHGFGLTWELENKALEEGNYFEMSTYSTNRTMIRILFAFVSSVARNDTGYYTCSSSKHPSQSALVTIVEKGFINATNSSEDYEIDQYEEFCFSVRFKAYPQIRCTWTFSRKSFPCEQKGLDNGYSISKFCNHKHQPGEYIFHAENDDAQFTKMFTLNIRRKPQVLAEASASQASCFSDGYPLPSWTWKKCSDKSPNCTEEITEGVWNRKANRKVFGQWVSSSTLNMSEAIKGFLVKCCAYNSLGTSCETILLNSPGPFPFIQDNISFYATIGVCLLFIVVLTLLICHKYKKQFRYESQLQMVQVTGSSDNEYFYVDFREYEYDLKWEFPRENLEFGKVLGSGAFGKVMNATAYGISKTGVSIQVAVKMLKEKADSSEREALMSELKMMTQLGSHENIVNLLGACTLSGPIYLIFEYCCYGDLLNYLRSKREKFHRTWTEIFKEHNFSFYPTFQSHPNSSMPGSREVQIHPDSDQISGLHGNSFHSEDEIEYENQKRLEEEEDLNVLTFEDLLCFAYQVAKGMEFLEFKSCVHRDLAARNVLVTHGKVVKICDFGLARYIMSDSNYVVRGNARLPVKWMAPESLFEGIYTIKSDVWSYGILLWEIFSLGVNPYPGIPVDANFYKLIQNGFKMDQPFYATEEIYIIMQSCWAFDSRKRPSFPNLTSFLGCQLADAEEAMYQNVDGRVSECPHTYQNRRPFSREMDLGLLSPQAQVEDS
Description: FLT3-D835Y biochemical kinase assay (AlphaScreen). The gist of the method: as §1

As usually defined, the IC50 is the concentration that inhibits the measured activity by half. In the case of `CCS(=O)(=O)Nc1cccc(-c2cnc3[nH]cc(-c4ccc5ncsc5c4)c3n2)c1` [P-169, N-[3-[7-(1,3-benzothiazol-6-yl)-5H-pyrrolo[2,3-b]pyrazin-2-yl]phenyl]ethanesulfonamide], the IC50 against FLT3-ITD and against FLT3-D835Y was 0.0001 to 1 µM throughout.

As to `Cn1cnc2ccc(-c3c[nH]c4ncc(-c5ccc(C#N)s5)cc34)cc21` [P-179, 5-[3-(3-methylbenzimidazol-5-yl)-1H-pyrrolo[2,3-b]pyridin-5-yl]thiophene-2-carbonitrile], the IC50 against FLT3-ITD and at FLT3-D835Y was 0.0001 to 1 µM throughout.

On to `CC(C)(C)n1cnc2ccc(-c3c[nH]c4ncc(-c5cnc(NC6CC6)nc5)nc34)cc21` [P-362, 5-[7-(3-tert-butylbenzimidazol-5-yl)-5H-pyrrolo[2,3-b]pyrazin-2-yl]-N-cyclopropyl-pyrimidin-2-amine], for which the IC50 against FLT3-ITD and against FLT3-D835Y was 0.0001 to 1 µM each time.

Take `Cn1cnc2ccc(-c3c[nH]c4ncc(-c5cccc(S(=O)(=O)N6CCCC6)c5)nc34)cc21` [P-156, 7-(3-methylbenzimidazol-5-yl)-2-(3-pyrrolidin-1-ylsulfonylphenyl)-5H-pyrrolo[2,3-b]pyrazine]: the half-maximal inhibitory concentration (IC50) on FLT3-ITD and against FLT3-D835Y was 0.0001 to 1 µM each time.

On to `CC(C)(C)n1cnc2ccc(-c3c[nH]c4ncc(-c5ccc(C6CC6)nc5)nc34)cc21` [P-353, 7-(3-tert-butylbenzimidazol-5-yl)-2-(6-cyclopropyl-3-pyridyl)-5H-pyrrolo[2,3-b]pyrazine], for which the concentration for half-maximal inhibition (IC50) against FLT3-ITD and against FLT3-D835Y was 0.0001 to 1 µM throughout.

On to `CN1CCN(c2ncc(-c3cnc4[nH]cc(-c5ccc6ncn(C(C)(C)C)c6c5)c4n3)cn2)CC1` [P-349, 7-(3-tert-butylbenzimidazol-5-yl)-2-[2-(4-methylpiperazin-1-yl)pyrimidin-5-yl]-5H-pyrrolo[2,3-b]pyrazine], for which the concentration for half-maximal inhibition (IC50) on FLT3-ITD and at FLT3-D835Y was 0.0001 to 1 µM each time.

Take `COc1cc(-c2cnc3[nH]cc(-c4ccc5ncn(C(C)(C)C)c5c4)c3n2)cc(OC)n1` [P-194, 7-(3-tert-butylbenzimidazol-5-yl)-2-(2,6-dimethoxy-4-pyridyl)-5H-pyrrolo[2,3-b]pyrazine]: the IC50 against FLT3-ITD and against FLT3-D835Y was 0.0001 to 1 µM each time.

Take `COc1cnc2[nH]cc(-c3ccc4c(c3)ncn4C)c2c1` [P-102, 5-methoxy-3-(1-methylbenzimidazol-5-yl)-1H-pyrrolo[2,3-b]pyridine]: the IC50 against FLT3-ITD fell in the range of 10 to 200 µM; at FLT3-D835Y, 1 to 10 µM.

With `COc1cnc2[nH]cc(-c3ccc4c(c3)N(C)CCO4)c2c1` [P-107, 6-(5-methoxy-1H-pyrrolo[2,3-b]pyridin-3-yl)-4-methyl-2,3-dihydro-1,4-benzoxazine], the IC50 at FLT3-ITD and at FLT3-D835Y was 0.0001 to 1 µM throughout.

In the case of `CC(C)(C)n1cnc2ccc(-c3c[nH]c4ncc(-c5cnc(C6CC6)nc5)cc34)cc21` [P-340, 1-tert-butyl-6-[5-(2-cyclopropylpyrimidin-5-yl)-1H-pyrrolo[2,3-b]pyridin-3-yl]benzimidazole], the half-inhibitory concentration (IC50) at FLT3-ITD and against FLT3-D835Y was 0.0001 to 1 µM throughout.

On to `COc1cc(-c2cnc3[nH]cc(-c4ccc5c(c4)N(C(C)C)CCO5)c3n2)ccn1` [P-187, 4-isopropyl-6-[2-(2-methoxy-4-pyridyl)-5H-pyrrolo[2,3-b]pyrazin-7-yl]-2,3-dihydro-1,4-benzoxazine], for which the IC50 at FLT3-ITD and on FLT3-D835Y was 0.0001 to 1 µM each time.

Turning to `Cn1cnc2ccc(-c3c[nH]c4ncc(-c5cccc(N6CCCS6(=O)=O)c5)nc34)cc21` [P-153, 2-[3-[7-(3-methylbenzimidazol-5-yl)-5H-pyrrolo[2,3-b]pyrazin-2-yl]phenyl]-1,2-thiazolidine 1,1-dioxide], the half-maximal inhibitory concentration (IC50) against FLT3-ITD and at FLT3-D835Y was 0.0001 to 1 µM in each case.

On to `Cn1cnc2ccc(-c3c[nH]c4ncc(-c5cnn(CC(F)(F)F)c5)nc34)cc21` [P-176, 7-(3-methylbenzimidazol-5-yl)-2-[1-(2,2,2-trifluoroethyl)pyrazol-4-yl]-5H-pyrrolo[2,3-b]pyrazine], for which the IC50 at FLT3-ITD and against FLT3-D835Y was 0.0001 to 1 µM in each case.

As to `Cn1cnc2ccc(-c3c[nH]c4ncc(-c5cccc(C#N)c5)nc34)cc21` [P-146, 3-[7-(3-methylbenzimidazol-5-yl)-5H-pyrrolo[2,3-b]pyrazin-2-yl]benzonitrile], the IC50 against FLT3-ITD and against FLT3-D835Y was 0.0001 to 1 µM in each case.

On to `Cn1cnc2ccc(-c3c[nH]c4ncc(-c5cccc(C(=O)NC6CC6)c5)nc34)cc21` [P-147, N-cyclopropyl-3-[7-(3-methylbenzimidazol-5-yl)-5H-pyrrolo[2,3-b]pyrazin-2-yl]benzamide], for which the IC50 against FLT3-ITD and on FLT3-D835Y was 0.0001 to 1 µM each time.

With `CC(C)(C)n1cnc2ccc(-c3c[nH]c4ncc(C#Cc5ccccc5)nc34)cc21` [P-142, 7-(3-tert-butylbenzimidazol-5-yl)-2-(2-phenylethynyl)-5H-pyrrolo[2,3-b]pyrazine], the half-maximal inhibitory concentration (IC50) against FLT3-ITD and at FLT3-D835Y was 0.0001 to 1 µM throughout.

As for `CC(C)(C)n1cnc2ccc(-c3c[nH]c4ncc(-c5cccc(OC(F)(F)F)c5)cc34)cc21` [P-202, 1-tert-butyl-6-[5-[3-(trifluoromethoxy)phenyl]-1H-pyrrolo[2,3-b]pyridin-3-yl]benzimidazole], the 50% inhibitory concentration (IC50) against FLT3-ITD and at FLT3-D835Y was 0.0001 to 1 µM throughout.

Regarding `COc1cc(-c2cnc3[nH]cc(-c4ccc5ncn(C6CCCNC6)c5c4)c3c2)ccn1` (stereo not drawn) [P-138, 5-(2-methoxy-4-pyridyl)-3-[3-(3-piperidyl)benzimidazol-5-yl]-1H-pyrrolo[2,3-b]pyridine], the concentration for half-maximal inhibition (IC50) against FLT3-ITD and on FLT3-D835Y was 0.0001 to 1 µM in each case.

Regarding `COc1cc(-c2cnc3[nH]cc(-c4ccc5ncn(C(C)(C)C)c5c4)c3c2)cc(OC)n1` [P-196, 1-tert-butyl-6-[5-(2,6-dimethoxy-4-pyridyl)-1H-pyrrolo[2,3-b]pyridin-3-yl]benzimidazole], the concentration for half-maximal inhibition (IC50) against FLT3-ITD and at FLT3-D835Y was 0.0001 to 1 µM each time.

As for `CC(C)(C)n1cnc2ccc(-c3c[nH]c4ncc(-c5ccc(F)nc5)nc34)cc21` [P-360, 7-(3-tert-butylbenzimidazol-5-yl)-2-(6-fluoro-3-pyridyl)-5H-pyrrolo[2,3-b]pyrazine], the IC50 against FLT3-ITD and against FLT3-D835Y was 0.0001 to 1 µM each time.

For the compound `Fc1ccc(-n2cnc3ccc(-c4c[nH]c5ncc(-c6cccc(OC(F)(F)F)c6)nc45)cc32)cc1` [P-192, 7-[3-(4-fluorophenyl)benzimidazol-5-yl]-2-[3-(trifluoromethoxy)phenyl]-5H-pyrrolo[2,3-b]pyrazine], the IC50 against FLT3-ITD and against FLT3-D835Y was 0.0001 to 1 µM in each case.
